Laboratory results as given in patent US7060822B1, “2-pyrazolin-5-ones” (Abbott GmbH & Co. KG, priority 1999, dated 2006).

Row | melting point | SMILES
1 | > 300 °C (dec.) | Cc1[nH]c(C=C2C(=O)NN=C2c2cnccn2)c(C)c1C(=O)CN(C)C.Cl
2 | 305 to 307 °C | O=C1NN=C(c2cccnc2)C1=Cc1c[nH]c2ccccc12
3 | 155 to 157 °C | O=C1NN=C(c2cccnc2)C1=Cc1cc2ccccc2[nH]1
4 | 212 to 215 °C | O=C1NN=C(c2cccnc2)C1=Cc1c[nH]c2ncccc12
5 | 235 to 238 °C | Cc1cc(C)c(C=C2C(=O)NN=C2c2cccnc2)[nH]1
6 | 210 to 212 °C | Cc1ccc(C=C2C(=O)NN=C2c2cccnc2)[nH]1
7 | 173 to 175 °C | O=C1NN=C([C@@H]2C[C@H]2c2ccccc2)C1=Cc1ccc[nH]1 (relative stereo) [Example 106, 3-(trans-2-phenylcyclopropyl)-4-[(pyrrol-2-yl)methylene]-2-pyrazolin-5-one]
8 | 280 to 282 °C | O=C1NN=C([C@@H]2C[C@H]2c2ccccc2)C1=Cc1c[nH]c2ccccc12 (relative stereo) [Example 285, 4-[(Indol-3-yl)methylene]-3-(trans-2-phenyl-1-cyclopropyl)-2-pyrazolin-5-one]
9 | 220 to 222 °C | Cc1cc(C=C2C(=O)NN=C2C2CC2)[nH]c1C [Example 1, 3-Cyclopropyl-4-[(4,5-dimethylpyrrol-2-yl)methylene]-2-pyrazolin-5-one]
10 | 182 to 184 °C | O=C1NN=C(Cc2ccccc2)C1=Cc1ccc[nH]1 [Example 2, 3-Benzyl-4-[(pyrrol-2-yl)methylene]-2-pyrazolin-5-one]
11 | 177 to 180 °C | COc1ccc(OCC2=NNC(=O)C2=Cc2ccc[nH]2)cc1 [Example 3, 3-(4-Methoxyphenyloxymethyl)-4-[(pyrrol-2-yl)methylene]-2-pyrazolin-5-one]
12 | 163 to 165 °C | O=C1NN=C(COc2ccccc2)C1=Cc1ccc[nH]1 [Example 4, 3-Phenyloxymethyl-4-[(pyrrol-2-yl)methylene]-2-pyrazolin-5-one]
13 | 218 to 222 °C | O=C1NN=C(COc2ccc(Cl)cc2)C1=Cc1ccc[nH]1 [Example 5, 3-(4-Chlorophenyloxymethyl)-4-[(pyrrol-2-yl)methylene]-2-pyrazolin-5-one]
14 | 179 to 180 °C | COc1ccc(CC2=NNC(=O)C2=Cc2ccc[nH]2)cc1 [Example 6, 3-(4-Methoxybenzyl)-4-[(pyrrol-2-yl)methylene]-2-pyrazolin-5-one]
15 | 270 to 272 °C | Cc1c(CCC(=O)O)c[nH]c1C=C1C(=O)NN=C1Cc1ccccc1 [Example 7, 3-Benzyl-4-{[4-(2-carboxyethyl)-3-methylpyrrol-2-yl]methylene}-2-pyrazolin-5-one]
16 | 226 to 228 °C | Cc1c[nH]c(C=C2C(=O)NN=C2Cc2ccccc2)c1CCC(=O)O [Example 8, 3-Benzyl-4-{[3-(2-carboxyethyl)-4-methylpyrrol-2-yl]methylene}-2-pyrazolin-5-one]
17 | 207 to 210 °C | Cc1ccc(OCC2=NNC(=O)C2=Cc2ccc[nH]2)cc1 [Example 9, 3-(4-Methylphenyloxymethyl)-4-[(pyrrol-2-yl)methylene]-2-pyrazolin-5-one]
18 | 172 to 174 °C | CC(C)OC1=NNC(=O)C1=Cc1ccc[nH]1 [Example 11, 3-Isopropoxy-4-[(pyrrol-2-yl)methylene]-2-pyrazolin-5-one]
19 | 145 to 147 °C | O=C1NN=C(CCc2ccccc2)C1=Cc1ccc[nH]1 [Example 12, 3-Phenylethyl-4-[(pyrrol-2-yl)methylene]-2-pyrazolin-5-one]
20 | 285 to 287 °C | O=C1NN=C(Nc2ccccc2)C1=Cc1ccc[nH]1 [Example 13, 3-Phenylamino-4-[(pyrrol-2-yl)methylene]-2-pyrazolin-5-one]
21 | 254 to 255 °C | Cc1ccc(CC2=NNC(=O)C2=Cc2ccc[nH]2)cc1 [Example 14, 3-(4-Methylbenzyl)-4-[(pyrrol-2-yl)methylene]-2-pyrazolin-5-one]
22 | 256 to 258 °C | Cc1ccc(NC2=NNC(=O)C2=Cc2ccc[nH]2)cc1 [Example 15, 3-(4-Methylphenylamino)-4-[(pyrrol-2-yl)methylene]-2-pyrazolin-5-one]
23 | 288 to 290 °C | COc1ccc(NC2=NNC(=O)C2=Cc2ccc[nH]2)cc1 [Example 16, 3-(4-Methoxyphenylamino)-4-[(pyrrol-2-yl)methylene]-2-pyrazolin-5-one]
24 | 178 to 180 °C | O=C1NN=C(Cc2ccc(Cl)cc2)C1=Cc1ccc[nH]1 [Example 17, 3-(4-Chlorobenzyl)-4-[(pyrrol-2-yl)methylene]-2-pyrazolin-5-one]
25 | 245 to 247 °C | O=C1NN=C(Nc2ccc(Cl)cc2)C1=Cc1ccc[nH]1 [Example 18, 3-(4-Chlorophenylamino)-4-[(pyrrol-2-yl)methylene]-2-pyrazolin-5-one]

Row | melting point | SMILES
26 | 165 to 167 °C | O=C1NN=C(COc2cccc(Cl)c2)C1=Cc1ccc[nH]1 [Example 19, 3-(3-Chlorophenyloxymethyl)-4-[(pyrrol-2-yl)methylene]-2-pyrazolin-5-one]
27 | 300 to 305 °C | O=C1NN=C(c2c[nH]c3ccccc23)C1=Cc1ccc[nH]1 [Example 20, 3-(Indol-3-yl)-4-[(pyrrol-2-yl)methylene]-2-pyrazolin-5-one]
28 | 169 to 171 °C | COc1cccc(CC2=NNC(=O)C2=Cc2ccc[nH]2)c1 [Example 21, 3-(3-Methoxybenzyl)-4-[(pyrrol-2-yl)methylene]-2-pyrazolin-5-one]
29 | 164 to 165 °C | COc1ccc(CC2=NNC(=O)C2=Cc2ccc[nH]2)cc1OC [Example 22, 3-(3,4-Dimethoxybenzyl)-4-[(pyrrol-2-yl)methylene]-2-pyrazolin-5-one]
30 | 137 to 139 °C | COc1ccc(CCC2=NNC(=O)C2=Cc2ccc[nH]2)cc1 [Example 23, 3-(4-Methoxyphenylethyl)-4-[(pyrrol-2-yl)methylene]-2-pyrazolin-5-one]
31 | 192 to 194 °C | O=C1NN=C(COc2ccc(-c3ccccc3)cc2)C1=Cc1ccc[nH]1 [Example 24, 3-(4-Phenylphenyloxymethyl)-4-[(pyrrol-2-yl)methylene]-2-pyrazolin-5-one]
32 | 130 to 131 °C | CC(CC1=NNC(=O)C1=Cc1ccc[nH]1)c1ccccc1 (centres unmarked) [Example 25, 3-(2-Phenylpropyl)-4-[(pyrrol-2-yl)methylene]-2-pyrazolin-5-one]
33 | 169 to 170 °C | O=C1NN=C(CCCc2ccccc2)C1=Cc1ccc[nH]1 [Example 26, 3-(3-Phenylpropyl)-4-[(pyrrol-2-yl)methylene]-2-pyrazolin-5-one]
34 | 253 to 255 °C | O=C1NN=C(CCc2ccc(O)cc2)C1=Cc1ccc[nH]1 [Example 27, 3-(4-Hydroxyphenylethyl)-4-[(pyrrol-2-yl)methylene]-2-pyrazolin-5-one]
35 | 186 to 187 °C | Cc1cc(C)c(C=C2C(=O)NN=C2CCc2ccccc2)[nH]1 [Example 28, 4-[(3,5-Dimethylpyrrol-2-yl)methylene]-3-phenylethyl-2-pyrazolin-5-one]
36 | 153 to 154 °C | Cc1ccc(CCC2=NNC(=O)C2=Cc2ccc[nH]2)cc1 [Example 29, 3-(4-Methylphenylethyl)-4-[(pyrrol-2-yl)methylene]-2-pyrazolin-5-one]
37 | 176 to 177 °C | Cc1cc(C)c(C=C2C(=O)NN=C2OC(C)C)[nH]1 [Example 30, 4-[(3,5-Dimethylpyrrol-2-yl)methylene]-3-isopropoxy-2-pyrazolin-5-one]
38 | 211 to 213 °C | CCOC1=NNC(=O)C1=Cc1ccc[nH]1 [Example 31, 3-Ethoxy-4-[(pyrrol-2-yl)methylene]-2-pyrazolin-5-one]
39 | 224 to 226 °C | O=C1NN=C(CCc2ccc([N+](=O)[O-])cc2)C1=Cc1ccc[nH]1 [Example 32, 3-(4-Nitrophenylethyl)-4-[(pyrrol-2-yl)methylene]-2-pyrazolin-5-one]
40 | 272 to 273 °C | O=C1NN=C(Nc2ccc(F)cc2)C1=Cc1ccc[nH]1 [Example 33, 3-(4-Fluorophenylamino)-4-[(pyrrol-2-yl)methylene]-2-pyrazolin-5-one]
41 | 193 to 194 °C | O=C1NN=C(CCc2ccc(Cl)cc2)C1=Cc1ccc[nH]1 [Example 34, 3-(4-Chlorophenylethyl)-4-[(pyrrol-2-yl)methylene]-2-pyrazolin-5-one]
42 | 195 to 197 °C | Cc1cc(C=C2C(=O)NN=C2OC(C)C)[nH]c1C [Example 35, 4-[(4,5-Dimethylpyrrol-2-yl)methylene]-3-isopropoxy-2-pyrazolin-5-one]
43 | 188 to 190 °C | CCc1c(C)[nH]c(C=C2C(=O)NN=C2OC(C)C)c1C [Example 36, 4-[(3,5-Dimethyl-4-ethylpyrrol-2-yl)methylene]-3-isopropoxy-2-pyrazolin-5-one]
44 | 168 to 170 °C | CCc1c(C)[nH]c(C=C2C(=O)NN=C2CCc2ccccc2)c1C [Example 37, 4-[(3,5-Dimethyl-4-ethylpyrrol-2-yl)methylene]-3-phenylethyl-2-pyrazolin-5-one]
45 | 138 to 140 °C | CC(C)OC1=NNC(=O)C1=Cc1cccn1CCCCO [Example 38, 4-{[1-(4-Hydroxybutyl)pyrrol-2-yl]methylene}-3-isopropoxy-2-pyrazolin-5-one]
46 | 201 to 203 °C | O=C1NN=C(OC2CCCC2)C1=Cc1ccc[nH]1 [Example 39, 3-Cyclopentyloxy-4-[(pyrrol-2-yl)methylene]-2-pyrazolin-5-one]
47 | 215 to 217 °C | Cc1c[nH]c(C=C2C(=O)NN=C2OC(C)C)c1 [Example 41, 3-Isopropoxy-4-[(4-methylpyrrol-2-yl)methylene]-2-pyrazolin-5-one]
48 | 178 to 180 °C | Cc1c[nH]c(C=C2C(=O)NN=C2CCc2ccc(N)cc2)c1 [Example 42, 3-(4-Aminophenylethyl)-4-[(4-methylpyrrol-2-yl)methylene]-2-pyrazolin-5-one]
49 | 199 to 201 °C | CC(C)OC1=NNC(=O)C1=Cc1cccn1C [Example 43, 3-Isopropoxy-4-[(1-methylpyrrol-2-yl)methylene]-2-pyrazolin-5-one]
50 | 128 to 130 °C | Cc1ccc(C=C2C(=O)NN=C2OC(C)C)[nH]1 [Example 44, 3-Isopropoxy-4-[(5-methylpyrrol-2-yl)methylene]-2-pyrazolin-5-one]
